Reference: patent US20210221848A1, “POLYMYXIN DERIVATIVES AND THEIR USE IN COMBINATION THERAPY TOGETHER WITH DIFFERENT ANTIBIOTICS” (priority 2014, published 2021)
Where two headings read alike, the source gives them in different places.

Legend:
[1] = test system: A. baumanii strains with elevated MICs to Polymyxin B; assay: MIC against strains with elevated MICs to Polymyxin B; assay type: cell-based, Acinetobacter baumannii; details: Table 6D; for MIC A. baumannii 053: strain 053, elevated MIC to Polymyxin B; for MIC A. baumannii 056: strain 056, elevated MIC to Polymyxin B; for MIC A. baumannii 068: strain 068, elevated MIC to Polymyxin B; for MIC A. baumannii 070: strain 070, elevated MIC to Polymyxin B
How it was run: (§1)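 Colonies picked from an 18-24 hour Mueller-Hinton agar plate are suspended directly and adjusted to 0.5 McFarland. Each MIC is run in duplicate. Values within 2-fold give the lower one; wider spread voids the assay; repeated testing yields the modal value.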

[2] = test system: E. coli strains with elevated MICs to Polymyxin B; assay: as above; assay type: cell-based, Escherichia coli; details: Table 6D; for MIC E. coli 058: strain 058, elevated MIC to Polymyxin B; for MIC E. coli 059: strain 059, elevated MIC to Polymyxin B; for MIC E. coli 060: strain 060, elevated MIC to Polymyxin B; for MIC E. coli 061: strain 061, elevated MIC to Polymyxin B
How it was run: as §1

[3] = test system: K. pneumoniae strains with elevated MICs to Polymyxin B; assay: as above; assay type: cell-based, Klebsiella pneumoniae; details: Table 6D; for MIC K. pneumoniae 063: strain 063, elevated MIC to Polymyxin B; for MIC K. pneumoniae 064: strain 064, elevated MIC to Polymyxin B; for MIC K. pneumoniae 655: strain 655, elevated MIC to Polymyxin B
How it was run: as §1

[4] = test system: P. aeruginosa strains with elevated MICs to Polymyxin B; assay: MIC against strains with elevated MICs to Polymyxin B; assay type: cell-based, Pseudomonas aeruginosa; details: Table 6D; for MIC P. aeruginosa 065: strain 065, elevated MIC to Polymyxin B; for MIC P. aeruginosa 066: strain 066, elevated MIC to Polymyxin B; for MIC P. aeruginosa 067: strain 067, elevated MIC to Polymyxin B
How it was run: as §1

[5] = absence of a second agent, Table 6B

Substance	MIC, E. coli ATCC 25922 (E. coli; sole activity, Table 6C)	MIC, A. baumannii ATCC BAA-747 (A. baumannii; sole activity, Table 6C)	MIC, A. baumannii NCTC 13424 (A. baumannii; sole activity, Table 6C)	MIC A. baumannii 053 [1]	MIC A. baumannii 056 [1]	MIC A. baumannii 068 [1]	MIC A. baumannii 070 [1]	MIC E. coli 058 [2]	MIC E. coli 059 [2]	MIC E. coli 060 [2]	MIC E. coli 061 [2]	MIC K. pneumoniae 063 [3]	MIC K. pneumoniae 064 [3]	MIC K. pneumoniae 655 [3]	MIC, P. aeruginosa ATCC 27853 (P. aeruginosa; sole activity, Table 6C)	MIC, P. aeruginosa CCUG 59347 (P. aeruginosa; sole activity, Table 6C)	MIC, K. pneumoniae ATCC 4352 (K. pneumoniae; sole activity, Table 6C)	MIC P. aeruginosa 065 [4]	MIC P. aeruginosa 066 [4]	MIC P. aeruginosa 067 [4]	other results
cis-5- (isobutylcarbamoyl) piperidine-3- carbonyl L-Thr-L- Dap-polymyxin B heptapeptide [Example D81]	0.06 micrograms/mL	0.03 micrograms/mL	0.06 micrograms/mL	128 micrograms/mL	32 micrograms/mL	32 micrograms/mL	32 micrograms/mL	8 micrograms/mL	16 micrograms/mL	8 micrograms/mL	32 micrograms/mL	64 micrograms/mL	16 micrograms/mL	64 micrograms/mL	0.25 micrograms/mL	0.5 micrograms/mL	0.06 micrograms/mL	2 micrograms/mL	16 micrograms/mL	>128 micrograms/mL	MIC, K. pneumoniae ATCC BAA-2146 (K. pneumoniae; K. pneumoniae ATCC BAA-2146, sole activity, Table 6C): 0.06 micrograms/mL
cis-5-cyclohexyl- piperidine-3- carbonyl L-Thr-L- Dap-polymyxin B heptapeptide [Example D85]	0.06 micrograms/mL	0.015 micrograms/mL	0.06 micrograms/mL	64 micrograms/mL	4 micrograms/mL	8 micrograms/mL	8 micrograms/mL	2 micrograms/mL	16 micrograms/mL	4 micrograms/mL	16 micrograms/mL	64 micrograms/mL	16 micrograms/mL	32 micrograms/mL	0.125 micrograms/mL	0.25 micrograms/mL	0.06 micrograms/mL	4 micrograms/mL	16 micrograms/mL	>128 micrograms/mL	MIC, E. coli NCTC 13441 (E. coli; sole activity, Table 6C): 0.125 micrograms/mL
trans-4- octylpyrrolidine-3- carbonyl polymyxin B nonapeptide [Example D30]	–	–	–	16 micrograms/mL	8 micrograms/mL	2 micrograms/mL	1 micrograms/mL	1 micrograms/mL	1 micrograms/mL	1 micrograms/mL	4 micrograms/mL	4 micrograms/mL	1 micrograms/mL	2 micrograms/mL	–	–	–	0.5 micrograms/mL	0.5 micrograms/mL	16 micrograms/mL	MIC, E. coli ATCC 25922 (E. coli; [5]): 2 micrograms/mL; MIC, E. coli NCTC 13441 (E. coli; [5]): 2 micrograms/mL; MIC, A. baumannii ATCC BAA-747 (A. baumannii; [5]): 1 micrograms/mL; MIC, A. baumannii NCTC 13424 (A. baumannii; [5]): 2 micrograms/mL; MIC, P. aeruginosa ATCC 27853 (P. aeruginosa; [5]): 1 micrograms/mL; MIC, P. aeruginosa CCUG 59347 (P. aeruginosa; [5]): 1 micrograms/mL; MIC, K. pneumoniae ATCC 4352 (K. pneumoniae; [5]): 1 micrograms/mL
